Reference: patent US12351597B2, “Substituted biphenyl or phenylheteroaryl-mannosides as antagonists of FimH” (GLAXOSMITHKLINE INTELLECTUAL PROPERTY DEVELOPMENT LIMITED, priority 2019, dated 2025)

Legend:
[1] = target: T1, FimH (Escherichia coli, UniProt Q1R2J4); experiment: Hemagglutination inhibition assay (HAI); assay type: cell-based; details: HAI titer / EC>90: concentration reducing bacterial agglutination of guinea pig red blood cells by >90%; UTI89 bacteria
T1 construct: endogenous in cells; host or cells: E. coli UTI89 whole bacteria (piliated), with guinea pig red blood cells
Text: “HAI titer or EC>90” is that concentration of the FimH inhibitor/antagonist which reduces the bacterial agglutination of guinea pig red blood cells by greater than 90%.
The activities of the Examples 1-40 compounds above as FimH antagonists/inhibitors were obtained by the following assay(s), and values are provided in Table 1. The values not provided mean that the activities have not yet been tested.
Hemagglutination Inhibition Assay (HAI)
The hemagglutination inhibition (HAI) assay was performed with UTI89 bacteria and guinea pig red blood cells, as previously described (S. J. Hultgren, W. R. Schwan, A. J. Schaeffer, J. L. Duncan Infect. Immun. 1986, 54, 613-620 and Jarvis, C.; Han, Z.; Kalas, V.; Klein, R.; Pinkner, J. S.; Ford, B.; Binkley, J.; Cusumano, C. K.; Cusumano, Z.; Mydock-McGrane, L.; Hultgren, S. J.; Janetka, J. W., ChemMedChem 2016, 11, 367-373). Values not listed were not tested.

[2] = Rat pharmacokinetics (IV infusion 1 mg/kg, then PO 5 mg/kg; blood and urine); assay type: in vivo, Male Wistar Han rats; details: for PK DNAUC h * uM (DNAUC oral, dose normalized): PO 5 mg/kg, blood, AUC divided by dose in mg/kg; for bioavailability: male, Wistar Han, whole blood, oral bioavailability from dose-normalized AUC, PO 5 mg/kg vs IV infusion 1 mg/kg
Text: General Assays for Obtaining AUC Oral h*μm, % F, and Ue % PO Values
Male Wistar Han rats were purchased from Vital River Laboratory Animal Technology Co. Ltd (Beijing, China). The animals were approx. 6-8 weeks old with body weights of 200-300 g on the dosing date. The animals were housed in a 12-hour light/12-hour dark cycle environment and had free access to food and water. All animals were fed prior to dosing. Studies were approved by the Pharmaron Institutional Animal Care and Use Committee (IACUC).
Test article was administered as an intravenous infusion for 1 hour (1 mg/kg) at 5 mL/kg/h. After 48 h, animals received a single oral dose (5 mg/kg, free form) at a dose volume of 10 mL/kg, respectively. Blood samples were collected at various time points after IV infusion and PO administrations. Urine samples were collected at various time points after IV infusion and PO administrations (for some compounds).
Test article was dissolved in DMSO with vortexing and sonification to obtain a stock solution. An aliquot of the stock solution was mixed with 10% HP-β-CD in saline with vortexing to obtain a solution with concentration at 0.2 mg/mL of test article.
Test article was added into 1% Methyl Cellulose with vortexing and sonication to obtain a homogeneous suspension with concentration at 0.5 mg/mL of test article.
For IV infusion (1 mg/kg) administration, blood samples were collected from each animal at 0, 0.25, 0.5, 0.75, 1, 1.08, 1.25, 1.5, 1.75, 2, 3, 5, 8, 12, 24 hour post-dose.
For PO (5 mg/kg) administration, blood samples were collected from each animal at 0, 0.25, 0.5, 1, 1.5, 2, 3, 4, 6, 8, 12, 24 hour post-dose.
Blood samples (50 μL) were collected from each animal via jugular vein. These blood samples were placed into tubes containing K2EDTA. Whole blood was mixed with same volume of water and inverted several times. The blood samples were stored at −75±15° C. until analysis.
For IV infusion (1 mg/kg) administration, urine samples were collected from each animal at 0-4, 4-8, 8-12, 12-24 hour post-dose.
For PO (5 mg/kg) administration, urine samples were collected (for some compounds) from each animal at 0-4, 4-8, 8-12, 12-24 hour post-dose.
55 μL of standards, 55 μL of QC samples or 55 μL of unknown samples (50 μL of blood or urine with 5 μL 50% acetonitrile) were mixed to 200 μL of acetonitrile containing IS (dexamethasone) to precipitate proteins. Then the samples were vortexed for 30 sec. After centrifugation at 4° C., 4700 rpm for 30 min, and 5 μL of the supernatant was injected into the LC-MS/MS system for quantitative analysis.
Test article blood and urine concentrations for each animal following IV infusion at 1 mg/kg and PO at 5 mg/kg were used to calculate pharmacokinetic parameters by employing a non-compartmental analysis (Phoenix™ WinNonlin® 7.0). The linear trapezoidal algorithm was used for AUC calculation. • AUC oral h*uM: Area under the curve (AUC) of drug concentration in blood vs. time (units: h*μM) following oral administration • DNAUC Dose normalized area under the curve is calculate by divided the area under the curve divided by the dose in the mg/kg • % F: Oral bioavailability (%) derived from the ratio of dose-normalized AUC following PO and IV administration • Ue % PO: Percentage of oral dose eliminated unchanged in urine or an estimate of that parameter generated from using the percentage of the iv dose eliminated in the urine times the oral bioavailability Production Methods: […]

For Cc1cc(-c2cncc(C#N)c2)ccc1O[C@H]1O[C@H](CO)[C@@H](O)[C@H](O)[C@@H]1O [Example 37], the “HAI nM” value [1] was ““++++” (<50)” and the “PK DNAUC h * uM (DNAUC oral, dose normalized)” value [2] was ““+” (<01 h · μM)”.

For Cc1cc(-c2ccnc(C(F)(F)F)n2)ccc1O[C@H]1O[C@H](CO)[C@@H](O)[C@H](O)[C@@H]1O [Example 14], the “HAI nM” value [1] was ““+++” (50-200)” and the “PK DNAUC h * uM (DNAUC oral, dose normalized)” value [2] was ““+” (<01 h · μM)”.

For Cc1cc(-c2cc(F)cc(C#N)c2)ccc1O[C@H]1O[C@H](CO)[C@@H](O)[C@H](O)[C@@H]1O [Example 4, 5-Fluoro-3′-methyl-4′-(((2R,3S,4S,5S,6R)-3,4,5-trihydroxy-6-(hydroxymethyl)tetrahydro-2H-pyran-2-yl)oxy)-[1,1′-biphenyl]-3-carbonitrile], the “HAI nM” value [1] was ““+++” (50-200)”, the “PK DNAUC h * uM (DNAUC oral, dose normalized)” value [2] was ““+++” (>0.2 h · μM)” and the bioavailability [2] was > 30%.

With OC[C@H]1O[C@H](Oc2c(F)cc(-c3ccc(C(F)(F)F)cn3)cc2C(F)(F)F)[C@@H](O)[C@@H](O)[C@@H]1O [Example 28] the “HAI nM” value [1] was ““++++” (<50)”, the “PK DNAUC h * uM (DNAUC oral, dose normalized)” value [2] was ““+++” (>0.2 h · μM)” and the bioavailability [2] was 10 to 30%.

For Cc1cc(-c2cnc(C3CC3)cn2)ccc1O[C@H]1O[C@H](CO)[C@@H](O)[C@H](O)[C@@H]1O [Example 12], the “HAI nM” value [1] was ““++++” (<50)”, the “PK DNAUC h * uM (DNAUC oral, dose normalized)” value [2] was ““++” (0.1 ≤ × ≤ 0.2h · μM)” and the bioavailability [2] was > 30%. For the same compound, the “Ue % (Ue % po)” value ([2]; percentage of oral dose eliminated unchanged in urine, or estimate from IV urinary % times oral bioavailability) was ““++” (0.5 ≤ × ≤ 5%)”.
